Laboratory results published in PMC6930500, “Structure–Activity Relationships of 7-Substituted Dimethyltyrosine-Tetrahydroisoquinoline Opioid Peptidomimetics” (Molecules, 2019).

Assays:
human KOR [1] = biological target: T1, human KOR (Homo sapiens, UniProt P41145); test: [35S]-GTPγS binding stimulation, KOR; format: biochemical; settings: mean (SEM); for EC50 / EC50 KOR: CHO-human KOR membranes, * n = 2, dns = does not stimulate, average maximal stimulation <10% at up to 10 µM; for Emax / % Stimulation KOR: versus 10 µM standard agonist U69,593, dns = average maximal stimulation <10% at up to 10 µM
T1 construct: expressed in transfected cells; cell lines provided by Professor Lawrence Toll
Experimental: (§1) Each novel compound was evaluated for binding to and stimulation of KOR, MOR, and DOR. Binding affinity (Ki) was determined by competitive displacement of [^3H]-diprenorphine, a non-selective opioid receptor antagonist with similar affinity for each of the three receptors. Potency (EC50) and efficacy, expressed as percent stimulation compared to a standard agonist at each receptor, were determined by a [^35S]-GTPγS binding assay.
(§2) Membranes prepared from transfected Chinese Hamster Ovary cells stably expressing human KOR, human MOR, or human DOR were used for all assays. Cells were grown to confluence at 37 °C in 5% CO2 in 1:1 DMEM:F12 media with 10% v/v fetal bovine serum and 5% v/v penicillin/streptomycin. Membranes were prepared by washing confluent cells three times with ice cold phosphate-buffered saline (0.9% NaCl, 0.61 mM Na2HPO4, 0.38 mM KH2PO4, pH 7.4). Cells were detached from the plates by incubation in warm harvesting buffer (20 mM HEPES, 150 mM NaCl, 0.68 mM EDTA, pH 7.4) and pelleted by centrifugation at 200× g for 3 min. The cell pellet was suspended in ice-cold 50 mM Tris-HCl buffer, pH 7.4 and homogenized with a Tissue Tearor (Biospec Products, Inc, distributed by Cole-Parmer, Vernon Hills, IL, USA) for 20 s at setting 4. The homogenate was centrifuged at 20,000× g for 20 min at 4 °C, and the pellet was rehomogenized in 50 mM Tris-HCl pH 7.4 with a Tissue Tearor for 10 s at setting 2, followed by recentrifugation. The final pellet was resuspended in 50 mM Tris-HCl pH 7.4 and frozen in aliquots at −80 °C. Protein concentration was determined via Pierce BCA protein assay kit using bovine serum albumin as the standard.
(§3) Agonist stimulation of KOR, MOR, and DOR by all test compounds was determined by [^35S]-guanosine 5′-O-[γ-thio]triphosphate ([^35S]-GTPγS) binding assays as previously reported. In a 96-well plate format, membranes from cells expressing opioid receptors as described above (10 µg of protein), [^35S]-GTPγS (0.1 nM), and guanosine diphosphate (30 µM) were incubated in GTPγS buffer (50 mM Tris-HCl, 100 mM NaCl, 5 mM MgCl2, 1 mM EDTA, pH 7.4) with various concentrations of test compound at 25 °C for 1 h. Basal stimulation was determined by incubation in the absence of any ligand. After incubation, membranes were filtered through Whatman GF/C 1.2 micron glass fiber filters and washed with GTPγS buffer with no EDTA. The radioactivity remaining on the filters was then quantified by liquid scintillation counting after saturation with EcoLume liquid scintillation cocktail in a Perkin-Elmer Microbeta 2450. Data are reported as percent stimulation compared to the effects of 10 µM standard agonists—U69,593 (KOR), DAMGO (MOR), or DPDPE (DOR). Percent stimulation and EC50 values were determined via nonlinear regression analysis using GraphPad Prism software from at least three separate assays performed in duplicate. Efficacy is expressed as percent stimulation relative to standard agonists.

human KOR [2] = biological target: T1, human KOR; test: [3H]-diprenorphine competitive displacement binding, KOR; settings: for Ki: membranes from CHO cells expressing human KOR, mean (SEM), n>=3 in duplicate
Experimental: as §1, §2
(§4) Binding affinities for all test compounds at KOR, MOR, and DOR were determined by competitive displacement of [^3H]-diprenorphine as previously reported. In a 96-well plate format, cell membranes (5–10 µg of protein) and [^3H]-diprenorphine (0.2 nM) were incubated in Tris-HCl buffer (50 mM, pH 7.4) with various concentrations of test compound at 25 °C for 1 h, allowing the mixture to reach equilibrium. Nonspecific binding was determined using the opioid antagonist naloxone (10 µM), and total binding was determined using vehicle in the absence of competitive ligand. After incubation, membranes were filtered through Whatman GF/C 1.2 micron glass fiber filters and washed with 50 mM Tris-HCl buffer. The radioactivity remaining on the filters was then quantified by liquid scintillation counting after saturation with EcoLume liquid scintillation cocktail in a Microbeta 2450 (Perkin-Elmer, Waltham, MA, USA). Binding affinity (Ki) values were calculated using the Cheng–Prusoff equation via nonlinear regression analysis using GraphPad Prism software from at least three separate binding assays performed in duplicate.

human DOR [3] = biological target: T2, human DOR (Homo sapiens, UniProt P41143); test: [35S]-GTPγS binding stimulation, DOR; format: biochemical; settings: mean (SEM), * n = 2; for EC50 / EC50 DOR: CHO-human DOR membranes, dns = does not stimulate, average maximal stimulation <10% at up to 10 µM; for % Stimulation DOR: versus 10 µM standard agonist DPDPE, dns = average maximal stimulation <10% at up to 10 µM
T2 construct: expressed in transfected cells; cell lines provided by Professor Lawrence Toll
Experimental: as §1, §2, §3

human DOR [4] = biological target: T2, human DOR; test: [3H]-diprenorphine competitive displacement binding, DOR; settings: membranes from CHO cells expressing human DOR; mean (SEM), n>=3 in duplicate
Experimental: as §1, §2, §4

human MOR [5] = biological target: T3, human MOR (Homo sapiens, UniProt P35372); test: [3H]-diprenorphine competitive displacement binding, MOR; settings: for Ki: membranes from CHO cells expressing human MOR, mean (SEM), n>=3 in duplicate
T3 construct: expressed in transfected cells; cell lines provided by Professor Lawrence Toll
Experimental: as §1, §2, §4

human MOR [6] = biological target: T3, human MOR; test: [35S]-GTPγS binding stimulation, MOR; format: biochemical; settings: mean (SEM), * n = 2; for EC50: CHO-human MOR membranes, dns = does not stimulate, average maximal stimulation <10% at up to 10 µM; for Emax: versus 10 µM standard agonist DAMGO, dns = average maximal stimulation <10% at up to 10 µM
Experimental: as §1, §2, §3

Row | Structure (SMILES) | EC50 (human KOR [1]) | Emax (human KOR [1]) | Ki (human KOR [2]) | EC50 (human DOR [3]) | % Stimulation DOR (human DOR [3]) | Ki (human DOR [4]) | Ki (human MOR [5]) | EC50 (human MOR [6]) | Emax (human MOR [6]) | EC50 KOR (human KOR [1]) | % Stimulation KOR (human KOR [1]) | selectivity for MOR and DOR over KOR (human KOR [2]; binding selectivity) | EC50 DOR (human DOR [3]) | higher affinity for KOR than for DOR (human KOR [2]; ratio of Ki values) | higher affinity for MOR than for DOR (human MOR [5]; ratio of Ki values)
1 | Cc1cc(O)cc(C)c1C[C@H](N)C(=O)N1CCc2ccc(Cc3ccccc3C(F)(F)F)cc2C1 [Compound 8c, (S)-2-amino-3-(4-hydroxy-2,6-dimethylphenyl)-1-(7-(2-(trifluoromethyl)benzyl)-3,4-dihydroisoquinolin-2(1H)-yl)propan-1-one] | 0.173 µM | 81% | 0.0026 µM | 0.342 µM | 24 (3) % | 0.0049 µM | 0.0043 µM | 0.053 µM | 76% |  |  |  |  |  | 
2 | Cc1cc(O)cc(C)c1C[C@H](N)C(=O)N1CCc2ccc(CN3CCc4ccccc4C3)cc2C1 [Compound 8w, (S)-2-amino-1-(7-((3,4-dihydroisoquinolin-2(1H)-yl)methyl)-3,4-dihydroisoquinolin-2(1H)-yl)-3-(4-hydroxy-2,6-dimethylphenyl)propan-1-one] |  |  | 0.042 µM |  | dns * | 0.0023 µM | 0.0006 µM | 0.0082 µM | 85% | dns | dns | 18 fold | dns * |  | 
3 | COc1cccc(Cc2ccc3c(c2)CN(C(=O)[C@@H](N)Cc2c(C)cc(O)cc2C)CC3)c1 [Compound 8e, (S)-2-amino-3-(4-hydroxy-2,6-dimethylphenyl)-1-(7-(3-methoxybenzyl)-3,4-dihydroisoquinolin-2(1H)-yl)propan-1-one] | 0.148 µM | 74% | 0.003 µM |  | dns | 0.0017 µM | 0.0027 µM | 0.024 µM | 48% |  |  |  | dns |  | 
4 | Cc1cc(O)cc(C)c1C[C@H](N)C(=O)N1CCc2ccc(Cc3ccccc3O)cc2C1 [Compound 8b, (S)-2-amino-3-(4-hydroxy-2,6-dimethylphenyl)-1-(7-(2-hydroxybenzyl)-3,4-dihydroisoquinolin-2(1H)-yl)propan-1-one] | 0.011 µM | 89% | 0.00032 µM |  | dns * | 0.0025 µM | 0.0012 µM | 0.043 µM | 60% |  |  |  | dns * | eight-fold | two-fold
5 | Cc1cc(O)cc(C)c1C[C@H](N)C(=O)N1CCc2ccc(CN3CCCC3)cc2C1 [Compound 8m, (S)-2-amino-3-(4-hydroxy-2,6-dimethylphenyl)-1-(7-(pyrrolidin-1-ylmethyl)-3,4-dihydroisoquinolin-2(1H)-yl)propan-1-one] |  |  | 0.069 µM |  | dns * | 0.175 µM | 0.017 µM |  | 40% | dns | dns |  | dns * |  | 
6 | Cc1cccc(Cc2ccc3c(c2)CN(C(=O)[C@@H](N)Cc2c(C)cc(O)cc2C)CC3)c1C [Compound 8i, (S)-2-amino-1-(7-(2,3-dimethylbenzyl)-3,4-dihydroisoquinolin-2(1H)-yl)-3-(4-hydroxy-2,6-dimethylphenyl)propan-1-one] | 1.03 µM | 54% | 0.0058 µM |  | dns * | 0.0036 µM | 0.0052 µM | 0.38 µM | 34% |  |  |  | dns * |  | 
7 | Cc1cc(O)cc(C)c1C[C@H](N)C(=O)N1CCc2ccc(CN3CCCCC3)cc2C1 [Compound 8l, (S)-2-amino-3-(4-hydroxy-2,6-dimethylphenyl)-1-(7-(piperidin-1-ylmethyl)-3,4-dihydroisoquinolin-2(1H)-yl)propan-1-one] |  |  | 0.029 µM |  | dns | 0.087 µM | 0.0047 µM | 0.845 µM | 34% | dns | dns |  | dns |  | 
8 | Cc1cc(O)cc(C)c1C[C@H](N)C(=O)N1CCc2ccc(Cc3ccncc3)cc2C1 [Compound 8k, (S)-2-amino-3-(4-hydroxy-2,6-dimethylphenyl)-1-(7-(pyridin-4-ylmethyl)-3,4-dihydroisoquinolin-2(1H)-yl)propan-1-one] | 1.18 µM | 44% | 0.044 µM |  | dns | 0.0026 µM | 0.042 µM | 0.179 µM | 28% |  |  |  | dns |  | 
9 | Cc1cc(O)cc(C)c1C[C@H](N)C(=O)N1CCc2ccc(Cc3cncc4ccccc34)cc2C1 [Compound 8v, (S)-2-amino-3-(4-hydroxy-2,6-dimethylphenyl)-1-(7-(isoquinolin-4-ylmethyl)-3,4-dihydroisoquinolin-2(1H)-yl)propan-1-one] | 0.014 µM | 71% | 0.00073 µM | 0.019 µM | 39 (7) % | 0.0003 µM | 0.0014 µM | 0.012 µM | 81% |  |  |  |  |  | 
10 | Cc1cc(O)cc(C)c1C[C@H](N)C(=O)N1CCc2ccc(CN3CCOCC3)cc2C1 [Compound 8n, (S)-2-amino-3-(4-hydroxy-2,6-dimethylphenyl)-1-(7-(morpholinomethyl)-3,4-dihydroisoquinolin-2(1H)-yl)propan-1-one] |  |  | 0.043 µM |  | dns | 0.0056 µM | 0.039 µM | 0.86 µM | 38% | dns | dns |  | dns |  | 
11 | Cc1cc(O)cc(C)c1C[C@H](N)C(=O)N1CCc2ccc(Cc3cccc4ccccc34)cc2C1 [Compound 8o, (S)-2-amino-3-(4-hydroxy-2,6-dimethylphenyl)-1-(7-(naphthalen-1-ylmethyl)-3,4-dihydroisoquinolin-2(1H)-yl)propan-1-one] | 0.349 µM | 83% | 0.0047 µM |  | dns | 0.0032 µM | 0.0052 µM | 0.132 µM | 59% |  |  |  | dns |  | 
